Laboratory results taken from PubChem BioAssay (NCI).
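The compound was tested at five concentrations on cells cultured in 96-well plates, with a 48-hour exposure period. TGI: concentration producing complete growth inhibition.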

Legend:
Experiment in all cases: growth of human tumour cells (NCI), 48 h
786-0 renal = system: 786-0 renal
A498 renal = system: A498 renal
A549 NSCLC = system: A549 NSCLC
ACHN renal = system: ACHN renal
BT-549 breast = system: BT-549 breast
CAKI-1 renal = system: CAKI-1 renal
CCRF-CEM leukemia = system: CCRF-CEM leukemia
COLO 205 colon = system: COLO 205 colon
DU-145 prostate = system: DU-145 prostate
EKVX NSCLC = system: EKVX NSCLC
HCC-2998 colon = system: HCC-2998 colon
HCT-116 colon = system: HCT-116 colon
HCT-15 colon = system: HCT-15 colon
HL-60(TB) leukemia = system: HL-60(TB) leukemia
HOP-62 NSCLC = system: HOP-62 NSCLC
HS 578T breast = system: HS 578T breast
HT29 colon = system: HT29 colon
IGROV1 ovarian = system: IGROV1 ovarian
K-562 leukemia = system: K-562 leukemia
KM12 colon = system: KM12 colon
LOX IMVI melanoma = system: LOX IMVI melanoma
M14 melanoma = system: M14 melanoma
MALME-3M melanoma = system: MALME-3M melanoma
MCF7 breast = system: MCF7 breast
MDA-MB-231 breast = system: MDA-MB-231 breast
MDA-MB-435 = system: MDA-MB-435
MDA-N = system: MDA-N
MOLT-4 leukemia = system: MOLT-4 leukemia
NCI-H226 lung = system: NCI-H226 lung
NCI-H23 lung = system: NCI-H23 lung
NCI-H522 lung = system: NCI-H522 lung
NCI/ADR-RES ovarian = system: NCI/ADR-RES ovarian
OVCAR-3 ovarian = system: OVCAR-3 ovarian
OVCAR-4 ovarian = system: OVCAR-4 ovarian
OVCAR-5 ovarian = system: OVCAR-5 ovarian
OVCAR-8 ovarian = system: OVCAR-8 ovarian
PC-3 prostate = system: PC-3 prostate
RPMI-8226 leukemia = system: RPMI-8226 leukemia
RXF 393 renal = system: RXF 393 renal
SF-268 CNS = system: SF-268 CNS
SF-295 CNS = system: SF-295 CNS
SF-539 CNS = system: SF-539 CNS
SK-MEL-2 melanoma = system: SK-MEL-2 melanoma
SK-MEL-28 melanoma = system: SK-MEL-28 melanoma
SK-MEL-5 melanoma = system: SK-MEL-5 melanoma
SK-OV-3 ovarian = system: SK-OV-3 ovarian
SN12C renal = system: SN12C renal
SNB-19 CNS = system: SNB-19 CNS
SR leukemia = system: SR leukemia
SW-620 colon = system: SW-620 colon
T-47D breast = system: T-47D breast
TK-10 renal = system: TK-10 renal
U251 CNS = system: U251 CNS
UACC-257 melanoma = system: UACC-257 melanoma
UACC-62 melanoma = system: UACC-62 melanoma
UO-31 renal = system: UO-31 renal

Measured: TGI

CC(C)[C@H]1NC(=O)[C@H]2N=C(S[C@H]2C)[C@@H]2CCCN2C(=O)[C@H](Cc2ccccc2)NC(=O)[C@@H]2CSC(=N2)[C@@H](Cc2ccccc2)NC(=O)[C@@H]2CSC1=N2
46.4 µM: CCRF-CEM leukemia
45 µM: NCI-H522 lung
28.2 µM: HCC-2998 colon
19.7 µM: SR leukemia
47 µM: HS 578T breast
23.9 µM: K-562 leukemia
16.3 µM: HL-60(TB) leukemia
29.5 µM: MOLT-4 leukemia
41.7 µM: A498 renal
19.8 µM: RPMI-8226 leukemia
> 50 µM: all other assays above
